Laboratory results taken from patent US12653892B2, “Composition and method for new therapeutic agents including guanidinium-presenting dendrimers and branched structures” (priority 2020, dated 2026).
Values after ≈ are worked out from the molar mass of the structure shown. Like-named read-outs stand apart in the source and are kept apart here.

Experiments:
[1] = test system: S. aureus ATCC 29213; experiment: MIC by broth microdilution, S. aureus ATCC 29213; format: cell-based; settings: S. aureus (ATCC 29213), Mueller Hinton Broth, polypropylene plate; for MIC, Antibiotic +NH2-triguan-6C / MIC, Antibiotic +NO2-triamine-2C / MIC, Antibiotic +NO2-triamine-6C: non-covalent mixture; for MIC: read-out: MIC, Antibiotic Alone
Protocol: (§1) Methods—Determination of MICs: MICs for S. aureus, E. faecium, E. coli, P aeruginosa, A. baumannii, K. pneumoniae were determined using broth microdilution in accordance with CLSI methods (Wiegand, I.; Hilpert, K.; Hancock, R. E. W. Agar and Broth Dilution Methods to Determine the Minimal Inhibitory Concentration (MIC) of Antimicrobial Substances. Nat. Protoc. 2008, 3, 163-175). One day prior to each MIC experiment, bacterial strains were streaked for single colonies on TSA plates from frozen glycerol stocks stored at −80° C. Three to five colonies from each plate were harvested with a disposable inoculating loop and resuspended in 500 μL of PBS to create a bacterial suspension. Alternatively, a single colony of the appropriate bacterial strain was added to 4 mL TSB for overnight growth at 37° C. with 200 rpm shaking to create a stationary phase bacterial suspension. The suspension was diluted in PBS to an OD600 of 0.1 (˜[…] CFU/ml), and the OD 0.1 suspension was diluted 1:100 in Mueller Hinton broth (MHB, Difco 257530) just prior to inoculating the 96-well polypropylene treatment plate (Costar 3879). A 50 μL portion of inoculum was added to a treatment plate containing 2-fold serial dilutions of compound in MHB (50 μL of treatment/well) to lend a final total volume of 100 μL/well and a final inoculum density of ˜5×10^5 CFU/ml. The completed assay plate was sealed with Parafilm, placed in a lidded plastic tray lined with moistened paper towels, and incubated at 37° C. for approximately 20 hours. The MIC was read as the lowest treatment concentration where no bacterial growth occurred, as determined by OD600 measurements on a microplate reader. If a different plate or media type was used for a particular test, this is noted below the respective table.

[2] = test system: S. aureus ATCC 29213; settings: cited from earlier work
[3] = test system: E. coli ATCC 25922; experiment: MIC by broth microdilution, E. coli ATCC 25922; format: cell-based; settings: E. coli (ATCC 25922)
Protocol: as §1

[4] = test system: E. coli ATCC 25922; settings: cited from earlier work
[5] = Staphylococcus aureus, ATCC29213, 20 h

Row | Compound | MIC, Antibiotic +NH2-triguan-6C [1] | MIC, Antibiotic +NO2-triamine-2C [1] | MIC, Antibiotic +NO2-triamine-6C [1] | MIC [1, 5] | Literature MIC [2] | MIC [1] | MIC, Antibiotic Alone [3] | MIC, Antibiotic +NH2-triguan-6C ([3]; non-covalent mixture) | MIC, Antibiotic +NO2-triamine-2C ([3]; non-covalent mixture) | MIC, Antibiotic +NO2-triamine-6C ([3]; non-covalent mixture) | Literature MIC [4]
1 | C[C@@H](O)[C@H]1C(=O)N2C(C(=O)O)=C(S[C@@H]3CN[C@H](C(=O)N(C)C)C3)[C@H](C)[C@H]12 [Meropenem] | 0.125 µM (≈ 0.0479 µg/mL) | 0.125 µM (≈ 0.0479 µg/mL) | 0.125 µM (≈ 0.0479 µg/mL) | 0.125 µM (≈ 0.0479 µg/mL) | 0.08 to 0.65 µM |  |  |  |  |  | 
2 | Gentamicin | 0.5 µM | 0.5 µM | 1 µM |  | 0.26 to 2.1 µM | 0.5 µM |  |  |  |  | 
3 | CC1(C)S[C@@H]2[C@H](NC(=O)[C@H](N)c3ccccc3)C(=O)N2[C@H]1C(=O)O [Ampicillin] | 4 µM (≈ 1.4 µg/mL) | 4 µM (≈ 1.4 µg/mL) | 4 µM (≈ 1.4 µg/mL) | 2 µM (≈ 0.699 µg/mL) | 1.4 µM |  | 16 µM (≈ 5.59 µg/mL) | 16 µM (≈ 5.59 µg/mL) | 16 µM (≈ 5.59 µg/mL) | 16 µM (≈ 5.59 µg/mL) | 5 to 22 µM
